The values below are quoted from earlier work in article PMC9159073 (Journal of medicinal chemistry, 2022).

Data set [1] has as its system SARS-CoV-2 PL^pro. Particulars: read-out: IC50, mass spectrometry assay; nsp 2/3 substrate.
The subject of data set [2] is SARS-CoV-2 PL^pro. Particulars: increase in FluoZin-3 fluorescence.
Data set [3] concerns SARS-CoV-2 PL^pro. Particulars: for IC50: read-out: Enzymatic inhibition IC50; for Inhibition of SARS-CoV-2 PLpro: IC50 not quantified.
The test system of data set [4] is SARS-CoV-2.
In data set [5] the test system is SARS-CoV-2. Particulars: for Antiviral effect in combination with hydroxychloroquine: combined with hydroxychloroquine; for Antiviral activity in combination with remdesivir: combined with remdesivir.
Data set [6] relates to SARS-CoV-2 PL^pro.
The test system of data set [7] is SARS-CoV-2 PL^pro. The source holds these as a separate data set.
Data set [8] has as its system SARS-CoV-2. Conditions: read-out: Antiviral EC50.
The test system of data set [9] is SARS-CoV-2 PL^pro. The source holds these as a separate data set.
Data set [10] deals with SARS-CoV-2 PL^pro. Particulars: read-out: IC50 (FP assay).
Data set [11] has as its system SARS-CoV-2 PL^pro. Particulars: read-out: IC50, deISGylating activity of PLpro; ISG15-Rh substrate.
The test system of data set [12] is SARS-CoV-2. Particulars: read-out: Antiviral EC50; A549-hACE2 cells, virus yield reduction assay.
The target in data set [13] is SARS-CoV-2 PL^pro. Particulars: read-out: KD (SPR).
The test system of data set [14] is host DUBs and DUB-like proteases. Conditions: 10 DUBs or DUB-like proteases.
The next data set concerns SARS-CoV-2 M^pro. Particulars: read-out: M^pro IC50; no reducing agent in the Mpro assay.
Where [15] appears, read: read-out: IC50, deubiquitinating activity of PLpro.
Where [16] appears, read: FRET assay, hit validation study.
[17] abbreviates: SARS-CoV-2 infected Vero E6 cells.
The mark [18] stands for this setting: read-out: Antiviral EC50 (qRTPCR), Vero E6 cells, qRT-PCR assay.

Like-named read-outs stand apart in the source and are kept apart here.

As to `Cc1c(S(=O)(=O)O)oc2c1C(=O)C(=O)c1c-2ccc2c1CCCC2(C)C` [Tanshinone IIA sulfonate (36), tanshinone IIA sulfonate], the 50% inhibitory concentration (IC50) in the data set on SARS-CoV-2 PL^pro [1] is […].
In the case of `O=c1nc(NO)ccn1[C@@H]1O[C@H](CO)[C@@H](O)[C@H]1O` [NHC, β-d-N^4-hydroxycytidine], the Host mutational activity entry in the data set on mammalian cell culture is “displayed host mutational activity”.
Take `c1ccc2sc(SSc3nc4ccccc4s3)nc2c1` [2,2’ -dithiobis(benzothiazole) (70), 2,2’ -dithiobis(benzothiazole)]: the “Zinc ejection from PLpro” value with SARS-CoV-2 PL^pro [2] is given as “eject zinc”.
In the case of `C[C@@H](NC(=O)c1ccccc1CCC(=O)NNC(=O)CCl)c1cccc2ccccc12` [Compound 49], the IC50 in the data set with SARS-CoV-2 PL^pro [3] (covalent inhibitors) is 5.4 µM.
Consider `O=C(O)c1cc(SSc2ccc([N+](=O)[O-])c(C(=O)O)c2)ccc1[N+](=O)[O-]` [5,5’ -dithiobis(2-nitrobenzoic acid)], for which the “Zinc ejection from PLpro” value in the data set with SARS-CoV-2 PL^pro [2] is “eject zinc”.
In the case of `CCC(CC)COC(=O)[C@H](C)N[P@](=O)(OC[C@H]1O[C@@](C#N)(c2ccc3c(N)ncnn23)[C@H](O)[C@@H]1O)Oc1ccccc1` [remdesivir (1), remdesivir], in the data set with SARS-CoV-2 [4] (read-out: Antiviral EC50, SARS-CoV-2 infected Vero E6 cells), the EC50 is 0.74 µM.
Turning to `CCN(CC)C(=S)SSC(=S)N(CC)CC` [Disulfiram (67), disulfiram], the “Zinc ejection from PLpro” value in the data set on SARS-CoV-2 PL^pro [2] is “eject zinc”. Moreover, the “Inhibition of nsp13 ATPase activity” value in the data set on SARS-CoV-2 nsp13 was “inhibit”. The “Inhibition of nsp14 exoribonuclease activity” value in the data set on SARS-CoV-2 nsp14 is listed as “inhibit”. For the same compound, in the data set with SARS-CoV-2 [5], the “Antiviral effect in combination with hydroxychloroquine” value is on record as “synergistic antiviral effect” and the “Antiviral activity in combination with remdesivir” value is given as “synergistic”.
Take `O=C1c2c(O)cccc2[C@@H]([C@@H]2O[C@H](CO)[C@@H](O)[C@H](O)[C@H]2O)c2cc(CO)cc(O)c21` [aloin B (43), aloin B]: the 50% inhibitory concentration (IC50) with SARS-CoV-2 PL^pro [3] was 16.1 µM; in the data set with SARS-CoV-2 PL^pro [6] (setting [15]) it was 17.5 µM.
For the compound `O=c1c2ccccc2[se]n1-c1ccccc1` [Ebselen (55), ebselen], the “Zinc ejection from PLpro” value with SARS-CoV-2 PL^pro [2] is listed as “eject zinc”. In addition, the “Inhibition of nsp13 ATPase activity” value with SARS-CoV-2 nsp13 is listed as “inhibit”. In the data set with SARS-CoV-2 nsp14, the “Inhibition of nsp14 exoribonuclease activity” value was “inhibit”. Moreover, in the data set on SARS-CoV-2 [5], the “Antiviral effect in combination with hydroxychloroquine” value is given as “synergistic antiviral effect” and the “Antiviral activity in combination with remdesivir” value is on record as “synergistic”.
In the case of `Cc1cc2nc3c(=O)[nH]c(=O)nc-3n(C)c2cc1C=O` [Ro 08–2750 (33)], the 50% inhibitory concentration (IC50) in the data set on SARS-CoV-2 PL^pro [3] (HTS) is 0.53 µM.
With `C[C@H]1COC2=C1C(=O)C(=O)c1c2ccc2c1CCCC2(C)C` [cryptotanshinone (28), cryptotanshinone], the “Intracellular PLpro inhibition in the FlipGFP assay” value (shortened to “Intracellular PLpro inhibition”) with SARS-CoV-2 PL^pro [7] was “not conclusive due to cell cytotoxicity”. The EC50 in the data set with SARS-CoV-2 [8] was over 200 µM.
Turning to `C[C@@H](NC(=O)c1ccccc1CCC(=O)NNC(=O)/C(C#N)=C/C1CC1)c1cccc2ccccc12` [Compound 51], the half-inhibitory concentration (IC50) with SARS-CoV-2 PL^pro [3] (covalent inhibitors) is over 200 µM.
Turning to `C[C@H](c1ccccc1Cl)N(C)Cc1cc(O)ccc1Cl` [Jun9-13-9 (11)], the IC50 with SARS-CoV-2 PL^pro [3] (FRET-based enzymatic assay) is 6.67 µM.
In the case of `Oc1c(Cl)cc(Cl)c2cccnc12` [Chloroxine (37), chloroxine], the “Binding to PLpro in the biolayer interferometry and thermal shift assays” value in the data set with SARS-CoV-2 PL^pro [9] was “showed binding”. Moreover, the IC50 with SARS-CoV-2 PL^pro [10] is 7.24 µM.
For the compound `O=Cc1ccc(O)cc1` [HBA (22), 4-hydroxybenzaldehyde], in the data set with SARS-CoV-2 PL^pro [11], the IC50 was 3.99 ± 1.33 µM. Further, the “Antiviral EC50 (qRTPCR)” value in the data set on SARS-CoV-2 [4] (Vero E6 cells, qRT-PCR assay) is given as “not conclusive”.
With `Cc1coc2c1C(=O)C(=O)c1c-2ccc2c1CCCC2(C)C` [tanshinone IIA (31), tanshinone IIA], the EC50 in the data set on SARS-CoV-2 [8] was over 200 µM.
In the case of `COCC[n+]1c2c(n(Cc3cnccn3)c1C)C(=O)c1ccccc1C2=O.[Br-]` [YM155 (27), YM155], the IC50 was 20.1 µM in the data set on SARS-CoV-2 PL^pro [3] (setting [16]); 2.47 ± 0.46 µM in the data set with SARS-CoV-2 PL^pro [3] (FRET-based enzymatic assay, Arg-Leu-Arg-Gly-Gly-AMC substrate, 50 mM HEPES, pH 7.5, 2 mM DTT); over 50 µM in the data set with SARS-CoV-2 PL^pro [1]. Also, the “Intracellular PLpro inhibition” value in the data set on SARS-CoV-2 PL^pro [7] is listed as “not conclusive due to cell cytotoxicity”.
For the compound `COC(=O)/C=C/C(=O)NNC(=O)CCc1ccc(NC(C)=O)cc1C(=O)N[C@H](C)c1cccc2ccccc12` [Compound 47], the half-maximal inhibitory concentration (IC50) with SARS-CoV-2 PL^pro [3] (covalent inhibitors) is 0.23 µM. In addition, in the data set with SARS-CoV-2 [4] (setting [17]), the “Antiviral EC50” value is given as “insignificant cytoprotective effects”.
With Ac-hTyr-Dap-Gly-Gly-VME [VIR251 (45)], the “Inhibition of SARS-CoV-2 PLpro” value in the data set on SARS-CoV-2 PL^pro [3] is given as “dose-dependent inhibition”. The “Inhibition of SARS-CoV PLpro” value in the data set on SARS-CoV PL^pro is “dose-dependent inhibition”.
For the compound `O=C1c2c(O)cccc2[C@H]([C@@H]2O[C@H](CO)[C@@H](O)[C@H](O)[C@H]2O)c2cc(CO)cc(O)c21` [aloin A (42), aloin A], the 50% inhibitory concentration (IC50) in the data set with SARS-CoV-2 PL^pro [3] was 13.2 µM; in the data set with SARS-CoV-2 PL^pro [6] (setting [15]), 15.7 µM.
For `c1ccc(SSc2ccccn2)nc1` [2,2’ -dithiodipyridine (69), 2,2’ -dithiodipyridine], in the data set with SARS-CoV-2 PL^pro [2], the “Zinc ejection from PLpro” value is given as “eject zinc”.
Regarding `Cc1ccc(N)cc1C(=O)N[C@H](C)c1cccc2ccccc12` [GRL0617 (4), GRL0617], in the data set with SARS-CoV-2 [12], the EC50 was over 20 µM.
As for `Cc1cccc2c3c(ccc12)C1=C(C(=O)C3=O)[C@@H](C)CO1` [dihydrotanshinone I (30), dihydrotanshinone I], the IC50 with SARS-CoV-2 PL^pro [3] (setting [16]) was 33 µM; in the data set with SARS-CoV-2 PL^pro [3] (HTS), 0.59 µM.
Consider `Cc1ccc(NC2=CC(=O)c3sc(C)nc3C2=O)cc1` [Cdk4 inhibitor III (34)], for which the concentration for half-maximal inhibition (IC50) in the data set with SARS-CoV-2 PL^pro [3] (HTS) is 0.39 µM.
On to `CC1(C)CCC2=C(O1)c1ccccc1C(=O)C2=O` [β-lapachone (35), β-lapachone], for which the IC50 with SARS-CoV-2 PL^pro [3] (HTS) was 0.61 µM.
For the compound `C[C@@H](NC(=O)c1ccccc1CCC(=O)NNC(=O)CC#N)c1cccc2ccccc12` [Compound 50], in the data set on SARS-CoV-2 PL^pro [3] (covalent inhibitors), the IC50 is 8 µM.
As to `Nc1nc2[nH]cnc2c(=S)[nH]1` [6-TG (26), 6-thioguanine], the half-inhibitory concentration (IC50) with SARS-CoV-2 PL^pro [3] (setting [16]) is over 50 µM. For the same compound, the “Binding to PLpro in the thermal shift assay” value in the data set on SARS-CoV-2 PL^pro [9] is given as “no binding”. Besides, the “Intracellular PLpro inhibition” value in the data set on SARS-CoV-2 PL^pro [7] is “did not inhibit”.
Consider `OCCc1ccc(O)cc1` [YRL (21), 4-(2-hydroxyethyl)phenol], for which the half-maximal inhibitory concentration (IC50) in the data set with SARS-CoV-2 PL^pro [11] was 6.68 ± 1.2 µM. In the data set on SARS-CoV-2 [4] (cytopathic effect (CPE) assay), the “Antiviral EC50 (CPE)” value is “failed to show inhibition”. Moreover, the EC50 in the data set with SARS-CoV-2 [4] (setting [18]) is 1 µM.
Turning to `COC(=O)/C=C/C(=O)NNC(=O)CCc1ccccc1C(=O)N[C@H](C)c1cccc2ccccc12` [Compound 46], in the data set with SARS-CoV-2 PL^pro [6] (read-out: IC50, deubiquitinating activity), the IC50 is […].
As to `CC(C)C(=O)OC[C@H]1O[C@@H](n2ccc(NO)nc2=O)[C@H](O)[C@@H]1O` [Molnupiravir (2), molnupiravir], the Ames test result in the data set with bacteria was “positive”.
Regarding `C[C@H](c1cccc2ccccc12)N1CCC(C(=O)NCc2cc(F)cc(NC(=O)N3CCN(C)CC3)c2)CC1` [Compound 8], in the data set with SARS-CoV-2 PL^pro [3], the IC50 is 0.44 µM. In addition, the Kd at SARS-CoV-2 PL^pro [13] is 2.6 µM. Also, the “Inhibition of a panel of host DUBs and DUB-like proteases” value in data set [14] is on record as “did not show significant inhibition”.
`CN(Cc1cn(C2C3=C(OC2(C)C)c2ccccc2C(=O)C3=O)nn1)C1=C(Br)C(=O)c2ccccc2C1=O` (stereo not shown) [Compound 40]: the figures for the concentration for half-maximal inhibition (IC50) in the data set on SARS-CoV-2 PL^pro [3] (0.1 mM DTT in the PLpro assay) and with SARS-CoV-2 M^pro were 3.1 µM and 66 µM, respectively.
Consider `C#CC(=O)NNC(=O)CCc1ccccc1C(=O)N[C@H](C)c1cccc2ccccc12` [Compound 48], for which the IC50 in the data set with SARS-CoV-2 PL^pro [3] (covalent inhibitors) was 0.098 µM. Further, the “Antiviral EC50” value in the data set with SARS-CoV-2 [4] (setting [17]) is “cytotoxic”.
Regarding `O=C1c2ccccc2-c2nc3nnnn3nc21` [PKK1/Akt/Flt dual pathway inhibitor (32)], in the data set on SARS-CoV-2 PL^pro [3] (HTS), the IC50 is 0.26 µM.
As to `CC1(C)OC2=C(C(=O)C(=O)c3ccccc32)C1n1cc(-c2ccccc2)nn1` (stereo not shown) [Compound 38], the IC50 in the data set on SARS-CoV-2 PL^pro [3] (0.1 mM DTT in the PLpro assay) was 1.7 µM.
As to `COC(=O)c1ccc(O)c(O)c1` [HE9 (20), methyl 3,4-dihydroxybenzoate], the EC50 in the data set on SARS-CoV-2 [4] (read-out: Antiviral EC50 (CPE), cytopathic effect (CPE) assay) was 10.4 µM; in the data set on SARS-CoV-2 [4] (setting [18]), 0.13 µM.
With “Ac-Abu(Bth)-Dap-Gly-Gly-VME [VIR250 (44)]”, in the data set with SARS-CoV-2 PL^pro [3], the “Inhibition of SARS-CoV-2 PLpro” value is given as “dose-dependent inhibition”. Besides, the “Inhibition of SARS-CoV PLpro” value with SARS-CoV PL^pro was “dose-dependent inhibition”.
For the compound `CN(Cc1cn(C2C3=C(OC2(C)C)c2ccccc2C(=O)C3=O)nn1)C1=CC(=O)c2ccccc2C1=O` (stereo not shown) [Compound 39], the IC50 with SARS-CoV-2 PL^pro [3] (0.1 mM DTT in the PLpro assay) is 2.2 µM.

What is called IC50 is the concentration that inhibits the measured activity by half. By EC50 is commonly meant the concentration needed to bring the measured effect to its halfway point. In general, Kd refers to a measure of binding affinity in units of concentration.
